Five compounds from article doi:10.1101/2025.01.10.632200, “Chemoproteomic Profiling of C. albicans for Characterization of Anti-fungal Kinase Inhibitors” (bioRxiv, 2025) can be followed below.

Format in all cases: biochemical
Assay [1] addresses T1, Yck2 (Candida albicans, UniProt A0A1D8PKB4). The assay can be described thus: purified enzyme kinase assay.
The target in assay [2] is T1, Yck2. The assay can be described thus: purified enzyme kinase assay; also NanoBRET ([…]) and MIB/MS competition. (Bioluminescence resonance energy transfer reports proximity on the nanometre scale.)
A further assay deals with T2, p38α (Homo sapiens, UniProt Q16539).
T2 construct: gene MAPK14
T2 sequence (Q16539 2-360): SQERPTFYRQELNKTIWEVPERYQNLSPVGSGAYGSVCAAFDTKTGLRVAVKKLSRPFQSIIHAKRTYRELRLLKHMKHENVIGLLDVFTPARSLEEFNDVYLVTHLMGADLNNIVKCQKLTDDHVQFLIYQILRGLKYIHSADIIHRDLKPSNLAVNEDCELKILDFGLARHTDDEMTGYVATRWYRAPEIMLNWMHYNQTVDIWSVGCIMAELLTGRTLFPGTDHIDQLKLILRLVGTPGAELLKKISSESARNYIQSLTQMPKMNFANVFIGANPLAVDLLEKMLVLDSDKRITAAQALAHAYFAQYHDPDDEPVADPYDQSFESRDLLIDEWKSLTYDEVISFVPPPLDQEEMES
The assay can be described thus: purified enzyme kinase assay; also NanoBRET ([…]).

The next assay deals with T3, CK1α (Homo sapiens, UniProt P48729).
T3 construct: gene CSNK1A1
T3 sequence (P48729 2-337): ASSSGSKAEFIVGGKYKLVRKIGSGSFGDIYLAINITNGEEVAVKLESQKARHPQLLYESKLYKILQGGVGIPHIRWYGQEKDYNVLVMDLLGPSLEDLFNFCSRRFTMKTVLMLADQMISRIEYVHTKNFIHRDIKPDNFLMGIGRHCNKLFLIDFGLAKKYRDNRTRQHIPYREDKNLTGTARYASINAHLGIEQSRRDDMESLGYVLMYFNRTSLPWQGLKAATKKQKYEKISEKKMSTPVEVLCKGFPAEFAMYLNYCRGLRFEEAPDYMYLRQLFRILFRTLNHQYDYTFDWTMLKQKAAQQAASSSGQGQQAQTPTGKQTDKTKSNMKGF
The assay can be described thus: purified enzyme kinase assay.

Assay [3] deals with T1, Yck2. As to the kind of experiment: purified enzyme kinase assay; also NanoBRET ([…]).

T1 sequence (A0A1D8PKB4 entry or part of it): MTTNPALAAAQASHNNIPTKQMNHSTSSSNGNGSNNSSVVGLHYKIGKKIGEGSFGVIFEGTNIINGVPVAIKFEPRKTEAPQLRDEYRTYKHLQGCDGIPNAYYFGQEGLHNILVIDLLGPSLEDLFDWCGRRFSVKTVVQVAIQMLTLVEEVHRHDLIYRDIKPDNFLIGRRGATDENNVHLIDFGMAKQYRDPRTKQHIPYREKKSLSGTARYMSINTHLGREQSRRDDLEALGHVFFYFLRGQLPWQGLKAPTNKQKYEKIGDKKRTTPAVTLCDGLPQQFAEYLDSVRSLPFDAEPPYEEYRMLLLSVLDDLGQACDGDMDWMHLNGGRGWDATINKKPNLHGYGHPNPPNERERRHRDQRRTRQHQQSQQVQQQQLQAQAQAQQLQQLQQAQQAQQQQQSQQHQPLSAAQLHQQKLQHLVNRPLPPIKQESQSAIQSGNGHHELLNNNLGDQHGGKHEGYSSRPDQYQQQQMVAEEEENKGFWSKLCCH

As a reminder, the IC50 is the concentration that inhibits the measured activity by half. High values mean weaker potency, low ones greater potency. In turn, `Cc1nc(N)sc1-c1ccnc(Nc2ccc(N3CCOCC3)cc2)n1` [Cyc-116] showed an IC50 at Yck2 [1] of 0.14 µM.

The compound `Cc1n[nH]c2ccc(-c3cc(OC[C@@H](N)Cc4ccccc4)cnc3-c3ccoc3)cc12` [GSK, GSK507358A] returned an IC50 at Yck2 [2] of 0.16 µM. In the case of `Cc1ccc2c(-c3ccncc3)c(-c3ccc(F)cc3)nn2c1` [GW, GW461484A], 0.17 µM corresponded to half-maximal inhibition on p38α (IC50).

In turn, `CN1CCC(F)(Cn2cnc(-c3ccc(F)cn3)c2-c2ccnc3[nH]ccc23)CC1` [MU1742] gave an IC50 on CK1α of 0.014 µM. For `CC(=O)c1cnc2ccc(-c3cc(Cl)c(O)c(Cl)c3)nc2c1N[C@H]1CC[C@H](CN(C)C)CC1` [OTS-167], on Yck2 [3], the midpoint of inhibition, the IC50, lay at 0.13 µM.
